Results from US20120039905A1, “The Role of p110 delta Signaling in Morbidity and Lung Pathology Induced by Influenza Virus Infection” (priority 2009, published 2012).
“Also recorded” adds a separate entry of the source.

Tests used:
[1] = tested on: influenza virus strain PR8; format: cell-based
[2] = tested on: H7N7 A/Equine/London/1416/73 influenza virus strain; design: species or system mice; details: mouse, in vivo

Cc1ccccc1-n1c(Cn2cnc3c(N)ncnc32)nc2cccc(C)c2c1=O [IC87114]
reduction of viral mRNA production compared to untreated cells [1]: ~25 fold
influenza virus replication (specific RT-PCR) ([1]; 100 μM): inhibits influenza virus replication
survival after lethal challenge [2]: increased survival; also recorded: protects mice lethally challenged
